≈ marks a conversion by molar mass, not a printed value. Calls of active or inactive are those of the source. The rule behind the calls is not given here.
Legend:
[1] = Antiproliferative activity against HEK293T cells assessed as reduction in cell viability measured for 48 hrs by MTT assay; assay type: toxicity, cell-based, HEK-293T; details: human
Erythrocyte = assay: (§1) Hemolytic activity in mouse RBC assessed as hemolysis incubated for 1 hrs by spectrophotometric analysis; assay type: toxicity, cell-based; details: erythrocyte, 1 h
[2] = as §1; assay type: toxicity, cell-based, Erythrocyte; details: mouse red blood cells (erythrocytes)
Staphylococcus aureus [3] = assay: Antibacterial activity against methicillin-resistant Staphylococcus aureus assessed as bacterial growth inhibition incubated for 24 hrs by CLSI based micro-broth dilution assay; assay type: functional
[4] = Hemolytic activity in mouse RBC assessed as hemolysis at 320 uM incubated for 1 hrs by spectrophotometric analysis relative to control; assay type: toxicity, cell-based, Erythrocyte; details: mouse red blood cells (erythrocytes), read-out: %max
[5] = Selectivity index, ratio of IC50 for antiproliferative activity against HEK293T cells assessed as reduction in cell viability to MIC for antibacterial activity against methicillin-resistant Staphylococcus aureus assessed as bacterial growth inhibition; assay type: toxicity, cell-based; details: human, read-out: Selectivity Index
HEK-293T = assay: Antiproliferative activity against HEK293T cells assessed as reduction in cell viability at 2.5 to 320 uM measured for 48 hrs by MTT assay relative to control; assay type: toxicity, cell-based; details: human, dose 2.5-320 µM
Staphylococcus aureus [6] = assay: Antibacterial activity against methicillin-resistant Staphylococcus aureus 19047 assessed as bacterial growth inhibition incubated for 24 hrs by CLSI based micro-broth dilution assay; assay type: functional
Staphylococcus aureus [7] = assay: Antibacterial activity against methicillin-resistant Staphylococcus aureus 18908 assessed as bacterial growth inhibition incubated for 24 hrs by CLSI based micro-broth dilution assay; assay type: functional
Staphylococcus aureus [8] = assay: Antibacterial activity against methicillin-resistant Staphylococcus aureus 18475 assessed as bacterial growth inhibition incubated for 24 hrs by CLSI based micro-broth dilution assay; assay type: functional
Staphylococcus aureus [9] = assay: Antibacterial activity against methicillin-resistant Staphylococcus aureus 18878 assessed as bacterial growth inhibition incubated for 24 hrs by CLSI based micro-broth dilution assay; assay type: functional
Staphylococcus aureus [10] = assay: Antibacterial activity against methicillin-resistant Staphylococcus aureus 19423 assessed as bacterial growth inhibition incubated for 24 hrs by CLSI based micro-broth dilution assay; assay type: functional
Staphylococcus aureus [11] = assay: Antibacterial activity against methicillin-resistant Staphylococcus aureus 18466 assessed as bacterial growth inhibition incubated for 24 hrs by CLSI based micro-broth dilution assay; assay type: functional
Staphylococcus aureus [12] = assay: Antibacterial activity against methicillin-resistant Staphylococcus aureus 18567 assessed as bacterial growth inhibition incubated for 24 hrs by CLSI based micro-broth dilution assay; assay type: functional
Staphylococcus aureus [13] = assay: Antibacterial activity against methicillin-resistant Staphylococcus aureus 19167 assessed as bacterial growth inhibition incubated for 24 hrs by CLSI based micro-broth dilution assay; assay type: functional
Staphylococcus aureus [14] = assay: Antibacterial activity against methicillin-resistant Staphylococcus aureus 19498 assessed as bacterial growth inhibition incubated for 24 hrs by CLSI based micro-broth dilution assay; assay type: functional
Staphylococcus aureus [15] = assay: Antibacterial activity against Methicillin-resistant Staphylococcus aureus infected in ICR mouse skin infection model assessed as reduction in skin abscess volume; assay type: functional, organism-based
Staphylococcus aureus [16] = assay: Antibacterial activity against methicillin-resistant Staphylococcus aureus 18858 assessed as bacterial growth inhibition incubated for 24 hrs by CLSI based micro-broth dilution assay; assay type: functional
Staphylococcus aureus [17] = assay: Antibacterial activity against Methicillin-resistant Staphylococcus aureus infected in ICR mouse skin infection model assessed as reduction in inflammatory infiltration at 5 mg/kg, sc by H and E staining based microscopic analysis; assay type: functional, organism-based
Staphylococcus aureus [18] = assay: Antibacterial activity against Methicillin-resistant Staphylococcus aureus infected in ICR mouse skin infection model assessed as reduction in bacterial content at 5 mg/kg, sc measured upto 10 days; assay type: functional, organism-based; details: time <= 10.0 day

Compound | IC50 at 48 h [1] [µM] | HC10 (Erythrocyte) [µM] | HC50 at 1 h [2] [µM] | MIC (Staphylococcus aureus [3]) [µM] | hemolysis at 1 h, 320 µM [4] [%] | selectivity ratio [5] | Activity (HEK-293T) [%] | MIC (Staphylococcus aureus [6]) [µM] | MIC (Staphylococcus aureus [7]) [µM] | MIC (Staphylococcus aureus [8]) [µM] | MIC (Staphylococcus aureus [9]) [µM] | MIC (Staphylococcus aureus [10]) [µM] | MIC (Staphylococcus aureus [11]) [µM] | MIC (Staphylococcus aureus [12]) [µM] | MIC (Staphylococcus aureus [13]) [µM] | MIC (Staphylococcus aureus [14]) [µM] | Activity (Staphylococcus aureus [15]) | MIC (Staphylococcus aureus [16]) [µM] | Activity (Staphylococcus aureus [17]) | Activity (Staphylococcus aureus [18])
H-RRPLARPLIRFIRRPW-NH2 | > 320 | > 320 | > 320 | > 48 | 7.57 | 6.67 |  |  |  |  |  |  |  |  |  |  |  |  |  | 
H-RRRVARRVIRFIRRAW-NH2 | > 320 | 320 | > 320 | 12 | 10.2 | 26.7 |  |  |  |  |  |  |  |  |  |  |  |  |  | 
H-RRRWARRIIWIIRRAW-NH2 | > 320 | > 320 | > 320 | 24 | 8.66 | 13.3 |  |  |  |  |  |  |  |  |  |  |  |  |  | 
H-KARVAVKVIRFLYKAW-NH2 | > 320 | > 320 | > 320 | 12 | 6.36 | 26.7 |  |  |  |  |  |  |  |  |  |  |  |  |  | 
H-WARIARRAIRAWRRWW-NH2 | > 320 | 75.19 | > 320 | 12 | 20.1 | 26.7 | 62.65 |  |  |  |  |  |  |  |  |  |  |  |  | 
H-RRWWWRRWWWRRRRWW-NH2 | > 320 | 25.91 | > 320 | 48 | 51.3 | 6.67 | 55.74 |  |  |  |  |  |  |  |  |  |  |  |  | 
COc1cccc(OC)c1C(=O)N[C@@H]1C(=O)N2[C@@H]1SC(C)(C)[C@@H]2C(=O)O [METHICILLIN] |  |  |  |  |  |  |  | > 480 | > 480 | > 480 | > 480 | > 480 | > 480 | > 480 | > 480 | > 480 | Active | > 480 |  | 
H-LRPLARRPIRRIRRAW-NH2 | > 320 | > 320 | > 320 | > 48 | 8.74 | 6.67 |  |  |  |  |  |  |  |  |  |  |  |  |  | 
Cc1onc(-c2ccccc2)c1C(=O)N[C@@H]1C(=O)N2[C@@H]1SC(C)(C)[C@@H]2C(=O)O [OXACILLIN] |  |  |  |  |  |  |  | > 480 | > 480 | > 480 | > 480 | > 480 | > 480 | > 480 | > 480 | > 480 |  | > 480 |  | 
H-RARVAVRVIRFLYRAW-NH2 | > 320 | 320 | > 320 | 12 | 9.34 | 26.7 |  |  |  |  |  |  |  |  |  |  |  |  |  | 
H-RARVRVRVRRFLRRRW-NH2 | > 320 | 320 | > 320 | > 48 | 11.3 | 6.67 |  |  |  |  |  |  |  |  |  |  |  |  |  | 
H-RRRVARRVFWFVRRAV-NH2 | > 320 | > 320 | > 320 | 24 | 8.25 | 13.3 |  |  |  |  |  |  |  |  |  |  |  |  |  | 
H-KASVSVKVTASLSKAW-NH2 | > 320 | > 320 | > 320 | > 48 | 7.51 | 6.67 |  |  |  |  |  |  |  |  |  |  |  |  |  | 
H-KARVSVKVTASLSKAW-NH2 | > 320 | > 320 | > 320 | > 48 | 7.57 | 6.67 |  |  |  |  |  |  |  |  |  |  |  |  |  | 
H-LRRFARRLIRRIRRAW-NH2 | > 320 | > 320 | > 320 | 12 | 7.16 | 26.7 |  |  |  |  |  |  |  |  |  |  |  |  |  | 
H-LFRVVRRVVRFIRRAA-NH2 | > 320 | > 320 | > 320 | 12 | 7.53 | 26.7 |  |  |  |  |  |  |  |  |  |  |  |  |  | 
H-WRWWRRRRWWRWRRWW-NH2 | > 320 | 33.2 | > 320 | 48 | 40.3 | 6.67 | 59.04 |  |  |  |  |  |  |  |  |  |  |  |  | 
H-KGVIFAKASVSVKVTASLSKAWTNSQ-NH2 | > 320 | > 320 | > 320 | > 48 | 5.92 | 6.67 |  |  |  |  |  |  |  |  |  |  |  |  |  | 
H-RRFFVRRVFFRRRRFF-OH | > 320 | 41.05 | > 320 | 48 | 30.1 | 6.67 | 59.65 |  |  |  |  |  |  |  |  |  |  |  |  | 
H-KASVSVKVTASLSKAWTNSQ-NH2 | > 320 | > 320 | > 320 | > 48 | 6.24 | 6.67 |  |  |  |  |  |  |  |  |  |  |  |  |  | 
H-RRWIARRAIWRRRRWW-NH2 | > 320 | 92.35 | > 320 | 48 | 17.2 | 6.67 | 58.94 |  |  |  |  |  |  |  |  |  |  |  |  | 
CN[C@H](CC(C)C)C(=O)N[C@H]1C(=O)N[C@@H](CC(N)=O)C(=O)N[C@H]2C(=O)N[C@H]3C(=O)N[C@H](C(=O)N[C@H](C(=O)O)c4cc(O)cc(O)c4-c4cc3ccc4O)[C@H](O)c3ccc(c(Cl)c3)Oc3cc2cc(c3O[C@@H]2O[C@H](CO)[C@@H](O)[C@H](O)[C@H]2O[C@H]2C[C@](C)(N)[C@H](O)[C@H](C)O2)Oc2ccc(cc2Cl)[C@H]1O [VANCOMYCIN] | > 320 | > 320 | > 320 | 1 (≈ 1.45 µg/mL) | 6.24 | 320 |  | 1 (≈ 1.45 µg/mL) | 1 (≈ 1.45 µg/mL) | 1 (≈ 1.45 µg/mL) | 1 (≈ 1.45 µg/mL) | 1 (≈ 1.45 µg/mL) | 1 (≈ 1.45 µg/mL) | 1 (≈ 1.45 µg/mL) | 1 (≈ 1.45 µg/mL) | 1 (≈ 1.45 µg/mL) |  | 1 (≈ 1.45 µg/mL) | Active | Active

— ChEMBL document CHEMBL5537162, “Development of Antibacterial Peptides with Membrane Disruption and Folate Pathway Inhibitory Activities against Methicillin-Resistant Staphylococcus aureus” (J Med Chem, 2024)
